From ChEMBL document CHEMBL1138365, “Application of 3D-QSAR for identification of descriptors defining bioactivity of antimicrobial peptides” (2007) come the findings set out here.

Structures are written as SMILES. Values after ≈ are worked out from the molar mass of the structure shown. Non-standard residues stand in square brackets, D forms with d. Residues, ends and D or L forms follow the SMILES beside them. ξ: configuration not given here. Pro(3ξ,4ξ-(CH2)4) = O=C(O)[C@H]1NCC2CCCCC21; Tic = O=C(O)[C@@H]1Cc2ccccc2CN1

Experiment [1] has as its system Mycolicibacterium fortuitum. As to the kind of experiment: Antibacterial activity against Mycobacterium ranae. It is filed as functional.
The subject of the next experiment is Staphylococcus aureus. Kind of experiment: Antibacterial activity against Staphylococcus aureus. It is filed as functional.

In the case of `NCCCC[C@H](NC(=O)[C@H](CCCCN)NC(=O)[C@H](CCCCN)NC(=O)[C@H](CCCCN)NC(=O)[C@@H]1Cc2ccccc2CN1C(=O)[C@H](CCCCN)NC(=O)CNC(=O)[C@@H]1C2CCCCC2CN1C(=O)[C@@H]1Cc2ccccc2CN1C(=O)[C@H](Cc1ccccc1)NC(=O)CNC(=O)[C@@H]1C2CCCCC2CN1C(=O)[C@@H]1Cc2ccccc2CN1C(=O)[C@H](CCCCN)NC(=O)CNC(=O)[C@@H]1C2CCCCC2CN1C(=O)[C@@H]1Cc2ccccc2CN1C(=O)[C@H](Cc1ccccc1)NC(=O)CN)C(N)=O` (stereo partly specified) (H-GF[Tic][Pro(3ξ,4ξ-(CH2)4)]GK[Tic][Pro(3ξ,4ξ-(CH2)4)]GF[Tic][Pro(3ξ,4ξ-(CH2)4)]GK[Tic]KKKK-NH2), the MIC (in experiment [1]; against Staphylococcus aureus) was 10 µM (≈ 24 µg/mL) each time.
For the compound `CC(C)C[C@H](NC(=O)[C@@H](N)CCCCN)C(=O)N1Cc2ccccc2C[C@H]1C(=O)N1CC2CCCCC2[C@H]1C(=O)NCC(=O)N[C@@H](CCCCN)C(=O)N1Cc2ccccc2C[C@H]1C(=O)N1CC2CCCCC2[C@H]1C(=O)NCC(=O)N[C@@H](Cc1ccccc1)C(=O)N1Cc2ccccc2C[C@H]1C(=O)N1CC2CCCCC2[C@H]1C(=O)NCC(=O)N[C@@H](CCCCN)C(=O)N1Cc2ccccc2C[C@H]1C(=O)N[C@@H](CCCCN)C(=O)N[C@@H](CCCCN)C(=O)N[C@@H](CCCCN)C(=O)N[C@@H](CCCCN)C(N)=O` (stereo partly specified) (H-KL[Tic][Pro(3ξ,4ξ-(CH2)4)]GK[Tic][Pro(3ξ,4ξ-(CH2)4)]GF[Tic][Pro(3ξ,4ξ-(CH2)4)]GK[Tic]KKKK-NH2), the MIC came out at 3 µM (≈ 7.31 µg/mL) in experiment [1] and 30 µM (≈ 73.1 µg/mL) in the experiment on Staphylococcus aureus.
On the same counts, the results for `CC(C)C[C@H](NC(=O)[C@@H](N)CCCCN)C(=O)N1Cc2ccccc2C[C@H]1C(=O)N1CC2CCCCC2[C@H]1C(=O)N[C@@H](CCCCN)C(=O)N1Cc2ccccc2C[C@H]1C(=O)N1CC2CCCCC2[C@H]1C(=O)N[C@@H](Cc1ccccc1)C(=O)N1Cc2ccccc2C[C@H]1C(=O)N1CC2CCCCC2[C@H]1C(=O)N[C@@H](CCCCN)C(=O)N1Cc2ccccc2C[C@H]1C(=O)N1CC2CCCCC2[C@H]1C(=O)N[C@@H](Cc1ccccc1)C(=O)N1Cc2ccccc2C[C@H]1C(=O)N1CC2CCCCC2[C@H]1C(=O)N[C@@H](CCCCN)C(=O)N1Cc2ccccc2C[C@H]1C(=O)N1CC2CCCCC2[C@H]1C(=O)N[C@@H](CCCCN)C(=O)N[C@@H](CCCNC(=N)N)C(N)=O` (stereo partly specified) (H-KL[Tic][Pro(3ξ,4ξ-(CH2)4)]K[Tic][Pro(3ξ,4ξ-(CH2)4)]F[Tic][Pro(3ξ,4ξ-(CH2)4)]K[Tic][Pro(3ξ,4ξ-(CH2)4)]F[Tic][Pro(3ξ,4ξ-(CH2)4)]K[Tic][Pro(3ξ,4ξ-(CH2)4)]KR-NH2) are 30 µM (≈ 92.5 µg/mL) and 10 µM (≈ 30.8 µg/mL).

In general, MIC refers to the least concentration at which growth counts as inhibited.
